From patent US20260234159A1, “SMALL MOLECULE TREATMENT OF FATTY LIVER DISEASE AND HCC” (SCANDIEDGE THERAPEUTICS AB, priority 2023, published 2026)

Columns and labels:
[1] = MTT cell viability / IC50 in growth media; type: cell-based, human; conditions: human, HepG2 cells, 10 μM
HepG2 cells = assay: MTT cell viability / IC50 in growth media; type: cell-based, human
[2] = In vivo toxicological study in rats: clinical observations and body weight; conditions: 300 mg/kg oral administration
Procedure: Forty-two male and forty-two female rats of the Wistar strain were allocated to the study. Three groups of three males and three females were given doses of 30, 100 and 300 mg/kg of target compounds (Table 8). The vehicle was 1.5 w/w % HPMC, 1.5 w/w % PS80 in 10 mM PBS, pH 7 and dose volume were 5 mL/kg.
The animals were acclimatised at least 14 day prior to the study and exposed to a 12 hours light, 12 hours dark light cycle. The formulations were administered via oral gavage. Administration occurred once daily in the morning for seven consecutive days.
A check of animal health and welfare status was done at least once on working days and weekend days.
Body weights were recorded the week before and within 24 hours before start of dosing, on Day 3 and on necropsy Day 8.

[3] = In vivo toxicological study in rats: plasma chemistry; set-up: species or system rats of the Wistar strain; conditions: plasma, 30-300 mg/kg of SET171
Procedure: Forty-two male and forty-two female rats of the Wistar strain were allocated to the study. Three groups of three males and three females were given doses of 30, 100 and 300 mg/kg of target compounds (Table 8). The vehicle was 1.5 w/w % HPMC, 1.5 w/w % PS80 in 10 mM PBS, pH 7 and dose volume were 5 mL/kg. The animals were acclimatised at least 14 day prior to the study and exposed to a 12 hours light, 12 hours dark light cycle. The formulations were administered via oral gavage. Administration occurred once daily in the morning for seven consecutive days. Blood for scheduled haematology and plasma chemistry were taken at necropsy. For plasma chemistry, 0.6 ml blood (lithium heparin) per animal and for haematology, 0.5 ml blood (K2EDTA) per animal. The blood and plasma were analysed using Exigo analyzer and Vetscan equipment. Blood samples were kept in room temperature […] after collection and mixing. The blood samples were analysed as whole blood within 60 min of collection. The VetScan analyser was calibrated with calibration samples of known plasma levels of each parameter before start of analysis, occasionally during the analysis period of study samples and after completed analyses (Table 10).

In the case of `N#Cc1c(NC(=O)c2cccc3ccccc23)sc2c1CCN(CC(=O)Nc1cccc(Br)c1)C2` [PKL-B171], the viability at 4 day, 10 µM ([1]; day 4) is reported as 1.1%, the viability at 2 days, 10 µM ([1]; treatment for 2 days) is reported as 67.4% and the IC50 (HepG2 cells; Homo sapiens, 48 h, HepG2, treatment for 2 days, 30 μM to 30 nM) is reported as 21.8 µM. For the same compound, the “cell viability of HepG2 cells” value (HepG2 cells; especially in cancerous media) was “particularly low cell viability”, the “tolerability (adverse clinical signs, body weight, clinical pathology parameters)” value [2] was “well tolerated” and the ALB ([3]; Sex/Group F/11) was 61 g/L. It also gave an ALP ([3]; Sex/Group F/11) of 114 U/L, an ALT ([3]; Sex/Group F/11) of 21 U/L and an AMY ([3]; Sex/Group F/11) of 527 U/L. The BUN ([3]; Sex/Group F/11) was 6.0 mmol/L, the CA ([3]; Sex/Group F/11) was 2.90 mmol/L and the CRE ([3]; Sex/Group F/11) was 45 µmol/L. The GLOB ([3]; Sex/Group F/11) was 8 g/L, the GLU ([3]; Sex/Group F/11) was 7.8 mmol/L and the “K+” value ([3]; Sex/Group F/11) was 4.4 mmol/L. For the same compound, the “NA+” value ([3]; Sex/Group F/11) was 138 mmol/L, the PHOS ([3]; Sex/Group F/11) was 2.33 mmol/L and the TBIL ([3]; Sex/Group F/11) was 5.3 µmol/L. It also gave a TP ([3]; Sex/Group F/11) of 70 g/L, an ALB ([3]; Sex/Group F/12) of 57 g/L and an ALP ([3]; Sex/Group F/12) of 126 U/L. For the same compound, the ALT ([3]; Sex/Group F/12) was 21 U/L, the AMY ([3]; Sex/Group F/12) was 570 U/L and the BUN ([3]; Sex/Group F/12) was 6.5 mmol/L. The CA ([3]; Sex/Group F/12) was 2.92 mmol/L, the CRE ([3]; Sex/Group F/12) was 38 µmol/L and the GLOB ([3]; Sex/Group F/12) was 9 g/L. For the same compound, the GLU ([3]; Sex/Group F/12) was 7.7 mmol/L, the “K+” value ([3]; Sex/Group F/12) was 4.5 mmol/L and the “NA+” value ([3]; Sex/Group F/12) was 137 mmol/L. For the same compound, the PHOS ([3]; Sex/Group F/12) was 2.42 mmol/L, the TBIL ([3]; Sex/Group F/12) was 5.0 µmol/L and the TP ([3]; Sex/Group F/12) was 66 g/L. For the same compound, the ALB ([3]; Sex/Group F/13) was 56 g/L, the ALP ([3]; Sex/Group F/13) was 145 U/L and the ALT ([3]; Sex/Group F/13) was 21 U/L. The AMY ([3]; Sex/Group F/13) was 550 U/L, the BUN ([3]; Sex/Group F/13) was 6.3 mmol/L and the CA ([3]; Sex/Group F/13) was 2.89 mmol/L. For the same compound, the CRE ([3]; Sex/Group F/13) was 39 µmol/L, the GLOB ([3]; Sex/Group F/13) was 11 g/L and the GLU ([3]; Sex/Group F/13) was 7.9 mmol/L. For the same compound, the “K+” value ([3]; Sex/Group F/13) was 4.5 mmol/L, the “NA+” value ([3]; Sex/Group F/13) was 139 mmol/L and the PHOS ([3]; Sex/Group F/13) was 2.64 mmol/L. The TBIL ([3]; Sex/Group F/13) was 4.0 µmol/L, the TP ([3]; Sex/Group F/13) was 67 g/L and the ALB ([3]; Sex/Group M/11) was 51 g/L. It also gave an ALP ([3]; Sex/Group M/11) of 260 U/L, an ALT ([3]; Sex/Group M/11) of 26 U/L and an AMY ([3]; Sex/Group M/11) of 810 U/L. For the same compound, the BUN ([3]; Sex/Group M/11) was 5.3 mmol/L, the CA ([3]; Sex/Group M/11) was 2.97 mmol/L and the CRE ([3]; Sex/Group M/11) was 47 µmol/L. The GLOB ([3]; Sex/Group M/11) was 12 g/L, the GLU ([3]; Sex/Group M/11) was 7.8 mmol/L and the “K+” value ([3]; Sex/Group M/11) was 4.3 mmol/L. For the same compound, the “NA+” value ([3]; Sex/Group M/11) was 140 mmol/L, the PHOS ([3]; Sex/Group M/11) was 2.83 mmol/L and the TBIL ([3]; Sex/Group M/11) was 4.3 µmol/L. For the same compound, the TP ([3]; Sex/Group M/11) was 62 g/L, the ALB ([3]; Sex/Group M/12) was 52 g/L and the ALP ([3]; Sex/Group M/12) was 248 U/L. It also gave an ALT ([3]; Sex/Group M/12) of 35 U/L, an AMY ([3]; Sex/Group M/12) of 846 U/L and a BUN ([3]; Sex/Group M/12) of 6.2 mmol/L. It also gave a CA ([3]; Sex/Group M/12) of 3.04 mmol/L, a CRE ([3]; Sex/Group M/12) of 35 µmol/L and a GLOB ([3]; Sex/Group M/12) of 12 g/L. For the same compound, the GLU ([3]; Sex/Group M/12) was 7.7 mmol/L, the “K+” value ([3]; Sex/Group M/12) was 4.6 mmol/L and the “NA+” value ([3]; Sex/Group M/12) was 140 mmol/L. For the same compound, the PHOS ([3]; Sex/Group M/12) was 3.04 mmol/L, the TBIL ([3]; Sex/Group M/12) was 4.3 µmol/L and the TP ([3]; Sex/Group M/12) was 64 g/L. For the same compound, the ALB ([3]; Sex/Group M/13) was 50 g/L, the ALP ([3]; Sex/Group M/13) was 263 U/L and the ALT ([3]; Sex/Group M/13) was 25 U/L. For the same compound, the AMY ([3]; Sex/Group M/13) was 808 U/L, the BUN ([3]; Sex/Group M/13) was 6.4 mmol/L and the CA ([3]; Sex/Group M/13) was 2.96 mmol/L. It also gave a CRE ([3]; Sex/Group M/13) of 29 µmol/L, a GLOB ([3]; Sex/Group M/13) of 13 g/L and a GLU ([3]; Sex/Group M/13) of 8.4 mmol/L. For the same compound, the “K+” value ([3]; Sex/Group M/13) was 4.4 mmol/L, the “NA+” value ([3]; Sex/Group M/13) was 141 mmol/L and the PHOS ([3]; Sex/Group M/13) was 2.94 mmol/L. It also gave a TBIL ([3]; Sex/Group M/13) of 5.0 µmol/L and a TP ([3]; Sex/Group M/13) of 63 g/L.
